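1) Cells in 96-well plates. 2) Compound, 48 h, 5 concentrations. 3) Linear interpolation between surrounding doses. 4) Unreached endpoint = highest concentration. GI50 marks 50% less growth.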 Calls of active or inactive are those of the source. Cut-off read from the data, not from the text of the source: active = GI50 up to about 1.1 µM and inactive = higher.
Legend:
Experiment in all cases: DTP human tumour cell line panel, 48 h
SW-620 = tested on: SW-620
COLO 205 = tested on: COLO 205
IGROV-1 = tested on: IGROV-1
HOP-92 = tested on: HOP-92
SK-MEL-28 = tested on: SK-MEL-28
SK-MEL-5 = tested on: SK-MEL-5
OVCAR-3 = tested on: OVCAR-3
UACC-257 = tested on: UACC-257
MDA-MB-231 = tested on: MDA-MB-231
NCI-H226 = tested on: NCI-H226
TK-10 = tested on: TK-10
SR = tested on: SR
UACC-62 = tested on: UACC-62
EKVX = tested on: EKVX
ACHN = tested on: ACHN
HCT-15 = tested on: HCT-15
NCI-H23 = tested on: NCI-H23
SNB-75 = tested on: SNB-75
NCI/ADR-RES = tested on: NCI/ADR-RES
A549 = tested on: A549
DU-145 = tested on: DU-145
SN12C = tested on: SN12C
HCC 2998 = tested on: HCC 2998
OVCAR-4 = tested on: OVCAR-4
U-251 = tested on: U-251
LOX IMVI = tested on: LOX IMVI
A498 = tested on: A498
HT-29 = tested on: HT-29
CCRF-CEM = tested on: CCRF-CEM
KM12 = tested on: KM12
Malme-3M = tested on: Malme-3M
T47D = tested on: T47D
OVCAR-5 = tested on: OVCAR-5
HOP-62 = tested on: HOP-62
SNB-19 = tested on: SNB-19
RPMI-8226 = tested on: RPMI-8226
HCT-116 = tested on: HCT-116
HL-60 = tested on: HL-60
M14 = tested on: M14
SF-268 = tested on: SF-268
786-0 = tested on: 786-0
MOLT-4 = tested on: MOLT-4
MDA-N = tested on: MDA-N
K562 = tested on: K562
Hs-578T = tested on: Hs-578T
RXF 393 = tested on: RXF 393
SF-539 = tested on: SF-539
UO-31 = tested on: UO-31
NCI-H522 = tested on: NCI-H522
OVCAR-8 = tested on: OVCAR-8
MCF7 = tested on: MCF7
SF-295 = tested on: SF-295
MDA-MB-435 = tested on: MDA-MB-435
SK-MEL-2 = tested on: SK-MEL-2
SK-OV-3 = tested on: SK-OV-3
PC-3 = tested on: PC-3

For `COc1cc2cc(C(=O)N3CC(COS(C)(=O)=O)c4ccc(O)cc43)[nH]c2c(OC)c1OC` (stereo not drawn), the GI50 (SW-620) was < 0.1 nM (active), the GI50 (COLO 205) was 0.432 nM (active) and the GI50 (IGROV-1) was 0.158 nM (active). The GI50 (HOP-92) was < 0.1 nM (active), the GI50 (SK-MEL-28) was < 0.1 nM (active) and the GI50 (SK-MEL-5) was < 0.1 nM (active). The GI50 (OVCAR-3) was < 0.1 nM (active), the GI50 (UACC-257) was 0.537 nM (active) and the GI50 (MDA-MB-231) was < 0.1 nM (active). For the same compound, the GI50 (NCI-H226) was 0.109 nM (active), the GI50 (TK-10) was 0.301 nM (active) and the GI50 (SR) was < 0.1 nM (active). For the same compound, the GI50 (UACC-62) was < 0.1 nM (active), the GI50 (EKVX) was 0.82 nM (active) and the GI50 (ACHN) was < 0.1 nM (active). The GI50 (HCT-15) was less than 0.1 nM, the GI50 (NCI-H23) was < 0.1 nM (active) and the GI50 (SNB-75) was 0.172 nM (active). For the same compound, the GI50 (NCI/ADR-RES) was < 0.1 nM (active), the GI50 (A549) was < 0.1 nM (active) and the GI50 (DU-145) was < 0.1 nM (active). For the same compound, the GI50 (SN12C) was < 0.1 nM (active), the GI50 (HCC 2998) was < 0.1 nM (active) and the GI50 (OVCAR-4) was < 0.1 nM (active). For the same compound, the GI50 (U-251) was < 0.1 nM (active), the GI50 (LOX IMVI) was < 0.1 nM (active) and the GI50 (A498) was < 10 nM (active). For the same compound, the GI50 (HT-29) was < 0.1 nM (active), the GI50 (CCRF-CEM) was < 10 nM (active) and the GI50 (KM12) was 0.169 nM (active). For the same compound, the GI50 (Malme-3M) was < 0.1 nM (active), the GI50 (T47D) was 0.552 nM (active) and the GI50 (OVCAR-5) was 0.536 nM (active). The GI50 (HOP-62) was < 0.1 nM (active), the GI50 (SNB-19) was < 0.1 nM (active) and the GI50 (RPMI-8226) was < 0.1 nM (active). For the same compound, the GI50 (HCT-116) was < 0.1 nM (active), the GI50 (HL-60) was < 0.1 nM (active) and the GI50 (M14) was < 0.1 nM (active). The GI50 (SF-268) was < 0.1 nM (active), the GI50 (786-0) was < 0.1 nM (active) and the GI50 (MOLT-4) was < 0.1 nM (active). The GI50 (MDA-N) was < 10 nM (active), the GI50 (K562) was < 0.1 nM (active) and the GI50 (Hs-578T) was 0.168 nM (active). For the same compound, the GI50 (RXF 393) was < 0.1 nM (active), the GI50 (SF-539) was < 0.1 nM (active) and the GI50 (UO-31) was < 0.1 nM (active). The GI50 (NCI-H522) was < 0.1 nM (active), the GI50 (OVCAR-8) was < 0.1 nM (active) and the GI50 (MCF7) was < 0.1 nM (active). The GI50 (SF-295) was < 0.1 nM (active), the GI50 (MDA-MB-435) was < 0.1 nM (active) and the GI50 (SK-MEL-2) was < 0.1 nM (active).
For `C=C[C@@H]1OC(=O)O[C@H]1CO`, the GI50 (SW-620) was > 100000 nM (inactive), the GI50 (COLO 205) was > 100000 nM (inactive) and the GI50 (IGROV-1) was > 100000 nM (inactive). For the same compound, the GI50 (SK-MEL-28) was > 100000 nM (inactive), the GI50 (SK-MEL-5) was > 100000 nM (inactive) and the GI50 (OVCAR-3) was > 100000 nM (inactive). The GI50 (UACC-257) was > 100000 nM (inactive), the GI50 (MDA-MB-231) was > 100000 nM (inactive) and the GI50 (NCI-H226) was > 100000 nM (inactive). The GI50 (TK-10) was > 100000 nM (inactive), the GI50 (SR) was > 100000 nM (inactive) and the GI50 (UACC-62) was > 100000 nM (inactive). The GI50 (EKVX) was > 100000 nM (inactive), the GI50 (ACHN) was > 100000 nM (inactive) and the GI50 (HCT-15) was greater than 100000 nM. For the same compound, the GI50 (NCI-H23) was > 100000 nM (inactive), the GI50 (SNB-75) was > 100000 nM (inactive) and the GI50 (NCI/ADR-RES) was > 100000 nM (inactive). For the same compound, the GI50 (SK-OV-3) was > 100000 nM (inactive), the GI50 (A549) was > 100000 nM (inactive) and the GI50 (DU-145) was > 100000 nM (inactive). The GI50 (SN12C) was > 100000 nM (inactive), the GI50 (OVCAR-4) was > 100000 nM (inactive) and the GI50 (U-251) was > 100000 nM (inactive). The GI50 (LOX IMVI) was > 100000 nM (inactive), the GI50 (A498) was > 100000 nM (inactive) and the GI50 (HT-29) was > 100000 nM (inactive). For the same compound, the GI50 (CCRF-CEM) was > 100000 nM (inactive), the GI50 (KM12) was > 100000 nM (inactive) and the GI50 (Malme-3M) was > 100000 nM (inactive). For the same compound, the GI50 (OVCAR-5) was > 100000 nM (inactive), the GI50 (HOP-62) was > 100000 nM (inactive) and the GI50 (SNB-19) was > 100000 nM (inactive). The GI50 (RPMI-8226) was > 100000 nM (inactive), the GI50 (HCT-116) was > 100000 nM (inactive) and the GI50 (M14) was > 100000 nM (inactive). For the same compound, the GI50 (SF-268) was > 100000 nM (inactive), the GI50 (786-0) was > 100000 nM (inactive) and the GI50 (MOLT-4) was > 100000 nM (inactive). The GI50 (MDA-N) was > 100000 nM (inactive), the GI50 (K562) was > 100000 nM (inactive) and the GI50 (Hs-578T) was > 100000 nM (inactive). The GI50 (UO-31) was > 100000 nM (inactive), the GI50 (OVCAR-8) was > 100000 nM (inactive) and the GI50 (PC-3) was > 100000 nM (inactive). The GI50 (MCF7) was > 100000 nM (inactive), the GI50 (SF-295) was > 100000 nM (inactive) and the GI50 (MDA-MB-435) was > 100000 nM (inactive). The GI50 (SK-MEL-2) was > 100000 nM (inactive).
